Patent US20230061608A1, “SUBSTITUTED QUINOLINONYL PIPERAZINE COMPOUNDS USEFUL AS T CELL ACTIVATORS” (BRISTOL-MYERS SQUIBB COMPANY, priority 2019, published 2023)

Columns and labels:
[1] = target: T1, DGKζ (Homo sapiens, UniProt Q13574); assay: In vitro DGK inhibition assay, DGKζ LIPGLO (extruded liposomes); type: biochemical; conditions: liposome (LIPGLO) assay, 150 μM ATP, 5 nM enzyme
T1 construct: Full length human DGKα and DGKζ, each expressed containing a TVMV-cleavable C-terminal Hexa-His tag; made in house; host or cells: Sf9 insect cells, baculovirus (Bac-to-Bac)
T1 sequence (Q13574 1-929 isoform Q13574-4): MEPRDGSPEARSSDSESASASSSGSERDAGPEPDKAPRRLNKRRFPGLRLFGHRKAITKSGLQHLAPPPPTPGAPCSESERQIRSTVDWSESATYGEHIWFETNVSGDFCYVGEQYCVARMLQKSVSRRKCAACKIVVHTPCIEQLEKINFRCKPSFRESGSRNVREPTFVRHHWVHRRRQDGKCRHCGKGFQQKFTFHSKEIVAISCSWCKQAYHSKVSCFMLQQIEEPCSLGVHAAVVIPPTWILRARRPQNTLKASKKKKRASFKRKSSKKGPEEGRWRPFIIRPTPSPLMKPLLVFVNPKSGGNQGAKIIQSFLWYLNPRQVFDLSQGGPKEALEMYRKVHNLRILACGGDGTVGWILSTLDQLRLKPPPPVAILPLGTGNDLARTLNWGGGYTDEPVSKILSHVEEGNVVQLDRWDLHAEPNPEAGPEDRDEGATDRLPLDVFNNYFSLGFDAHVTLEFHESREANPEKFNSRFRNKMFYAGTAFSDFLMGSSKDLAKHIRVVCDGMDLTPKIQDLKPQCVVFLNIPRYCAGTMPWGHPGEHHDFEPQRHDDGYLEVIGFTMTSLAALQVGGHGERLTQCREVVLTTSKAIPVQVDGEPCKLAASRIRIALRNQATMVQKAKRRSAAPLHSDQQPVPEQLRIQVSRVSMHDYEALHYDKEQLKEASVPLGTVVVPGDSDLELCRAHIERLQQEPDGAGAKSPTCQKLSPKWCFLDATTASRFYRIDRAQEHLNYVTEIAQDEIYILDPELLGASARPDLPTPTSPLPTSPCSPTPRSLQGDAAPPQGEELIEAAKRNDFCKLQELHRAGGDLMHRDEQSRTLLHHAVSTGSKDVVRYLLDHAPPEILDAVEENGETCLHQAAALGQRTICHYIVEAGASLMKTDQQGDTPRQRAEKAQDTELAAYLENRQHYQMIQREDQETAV
Protocol: (§1) Assay 1: In vitro DGK Inhibition Assays—Method A
(§2) The DGKα and DGKζ reactions were performed using extruded liposomes (DGKα and DGKζ LIPGLO assays). The reactions were carried out in 50 mM MOPS pH 7.5, 100 mM NaCl, 10 mM MgCl2, 1 μM CaCl2), and 1 mM DTT (assay buffer). The lipid substrate concentrations were 2 mM PS, 0.25 mM DAG, and 2.75 mM PC for the extruded liposome reactions. The reactions were carried out in 150 μM ATP. The enzyme concentrations for the DGKα and DGKζ were 5 nM.
(§3) The compound inhibition studies were carried out as follows: 50 nL droplets of each test compound (top concentration 10 mM with 11 point, 3-fold dilution series for each compound) solubilized in DMSO were transferred to wells of a white 1536 well plate (Corning 3725). A 5 mL enzyme/substrate solution at 2× final reaction concentration was prepared by combining 2.5 mL 4× enzyme solution (20 nM DGKα or DGKζ (prepared as described below) in assay buffer) and 2.5 mL of 4× liposome solution (compositions described below) and incubated at room temperature for 10 minutes. Next, 1 μL 2× enzyme/substrate solution was added to wells containing the test compound and reactions were initiated with the addition of 1 μL 300 uM ATP. The reactions were allowed to proceed for 1 hr, after which 2 μL Glo Reagent (Promega V9101) was added and incubated for 40 minutes. Next, 4 μL Kinase Detection Reagent was added and incubated for 30 minutes. Luminescence was recorded using an EnVision microplate reader. The percent inhibition was calculated from the ATP conversion generated by no enzyme control reactions for 100% inhibition and vehicle-only reactions for 0% inhibition. The compounds were evaluated at 11 concentrations to determine IC50.
(§4) The lipid composition was 5 mol % DAG (Avanti 8008110), 40 mol % PS (Avanti 840035P), and 55 mol % PC (Avanti 850457) at a total lipid concentration of 15.2 mg/mL for the 4× liposome solution. The PC, DAG, and PS were dissolved in chloroform, combined, and dried in vacuo to a thin film. The lipids were hydrated to 20 mM in 50 mM MOPS pH 7.5, 100 mM NaCl, 5 mM MgCl2, and were freeze-thawed five times. The lipid suspension was extruded through a 100 nm polycarbonate filter eleven times. Dynamic light scattering was carried out to confirm liposome size (50-60 nm radius). The liposome preparation was stored at 4° C. for as long as four weeks.
(§5) Human DGK-alpha-TVMV-His-pFBgate and human DGK-zeta-transcript variant-2-TVMV-His-pFBgate baculovirus samples were generated using the Bac-to-Bac baculovirus expression system (Invitrogen) according to the manufacturer's protocol. The DNA used for expression of DGK-alpha and DGK-zeta have SEQ ID NOs: 1 and 3, respectively. Baculovirus amplification was achieved using infected Sf9 cells at 1:1500 virus/cell ratios, and grown for 65 hours at 27° C. post-transfection.
(§6) Full length human DGKα and DGKζ, each expressed containing a TVMV-cleavable C-terminal Hexa-His tag sequence (SEQ ID NOs: 2 and 4, respectively) and produced as described above, were purified from Sf9 baculovirus-infected insect cell paste. The cells were lysed using nitrogen cavitation method with a nitrogen bomb (Parr Instruments), and the lysates were clarified by centrifugation. The clarified lysates were purified to ˜90% homogeneity, using three successive column chromatography steps on an ÄKTA Purifier Plus system. The three steps column chromatography included nickel affinity resin capture (i.e. HisTrap FF crude, GE Healthcare), followed by size exclusion chromatography (i.e. HiLoad 26/600 Superdex 200 prep grade, GE Healthcare for DGK-alpha, and HiPrep 26/600 Sephacryl S 300_HR, GE Healthcare for DGK-zeta). The third step was ion exchange chromatography, and differed for the two isoforms. DGKα was polished using Q-Sepharose anion exchange chromatography (GE Healthcare). DGKζ was polished using SP Sepharose cation exchange chromatography (GE Healthcare). The proteins were delivered at concentrations of ≥2 mg/mL. […]

[2] = target: T2, DGKα (Homo sapiens, UniProt P23743); assay: In vitro DGK inhibition assay, DGKα LIPGLO (extruded liposomes); type: biochemical; conditions: liposome (LIPGLO) assay, 150 μM ATP, 5 nM enzyme
T2 construct: made in house; host or cells: Sf9 insect cells, baculovirus (Bac-to-Bac)
T2 sequence (P23743 whole entry): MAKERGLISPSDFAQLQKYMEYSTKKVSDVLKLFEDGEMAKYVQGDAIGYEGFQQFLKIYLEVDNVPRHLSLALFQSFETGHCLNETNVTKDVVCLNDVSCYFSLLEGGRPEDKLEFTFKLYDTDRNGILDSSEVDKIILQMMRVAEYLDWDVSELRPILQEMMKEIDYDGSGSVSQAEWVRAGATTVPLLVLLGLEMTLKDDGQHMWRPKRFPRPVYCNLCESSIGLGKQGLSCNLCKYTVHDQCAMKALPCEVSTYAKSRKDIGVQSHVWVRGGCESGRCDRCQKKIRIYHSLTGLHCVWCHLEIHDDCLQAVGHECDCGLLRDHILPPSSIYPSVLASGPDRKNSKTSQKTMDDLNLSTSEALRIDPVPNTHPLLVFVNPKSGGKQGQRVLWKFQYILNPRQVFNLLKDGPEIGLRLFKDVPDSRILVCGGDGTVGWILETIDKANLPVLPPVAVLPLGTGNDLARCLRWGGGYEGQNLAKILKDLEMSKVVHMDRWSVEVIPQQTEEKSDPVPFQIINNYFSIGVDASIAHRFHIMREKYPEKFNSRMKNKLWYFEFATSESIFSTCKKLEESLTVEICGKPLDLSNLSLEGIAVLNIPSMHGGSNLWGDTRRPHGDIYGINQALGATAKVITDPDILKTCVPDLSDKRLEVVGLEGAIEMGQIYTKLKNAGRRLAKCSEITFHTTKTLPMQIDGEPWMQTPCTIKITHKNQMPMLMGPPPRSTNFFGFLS
Protocol: as §1, §2, §3, §4, §5, §6

## Cn1c(=O)c([N+](=O)[O-])c(N2CCN(Cc3cccc(F)c3)CC2)c2cc(F)ccc21 [Example 1, 6-fluoro-4-{4-[(3-fluorophenyl)methyl]piperazin-1-yl}-1-methyl-3-nitro-1,2-dihydroquinolin-2-one]
[1]
  IC50: 41 µM
[2]
  IC50: 0.0073 µM

## Cc1cc(F)cc(CN2CCN(c3c(-c4ccncc4)c(=O)n(C)c4ccc(F)cc34)CC2)c1 [Example 2, 6-fluoro-4-{4-[(3-fluoro-5-methylphenyl)methyl]piperazin-1-yl}-1-methyl-3-(pyridin-4-yl)-1,2-dihydroquinolin-2-one]
[1]
  IC50: 35 µM
[2]
  IC50: 0.051 µM

## C[C@@H]1CN(c2c(C#N)c(=O)n(C)c3ccccc23)[C@@H](C)CN1C(c1ccc(F)cc1)c1ccc(F)cc1 (stereo in doubt) [Example 6, 4-[(2S,5R)-4-[bis(4-fluorophenyl)methyl]-2,5-dimethylpiperazin-1-yl]-1-methyl-2-oxo-1,2-dihydroquinoline-3-carbonitrile]
[1]
  IC50: > 27 µM
[2]
  IC50: 0.7 µM

## Cn1c(=O)c([N+](=O)[O-])c(N2CCN(Cc3ccccc3)C(=O)C2)c2cc(F)ccc21 [Example 5, 4-(4-benzyl-3-oxopiperazin-1-yl)-6-fluoro-1-methyl-3-nitro-1,2-dihydroquinolin-2-one]
[1]
  IC50: > 240 µM
[2]
  IC50: 0.5 µM

## CCn1ccc2c(CN3CCN(c4c([N+](=O)[O-])c(=O)n(C)c5ccc(F)cc45)CC3)cccc21 [Example 4, 4-{4-[(1-ethyl-1H-indol-4-yl)methyl]piperazin-1-yl}-6-fluoro-1-methyl-3-nitro-1,2-dihydroquinolin-2-one]
[1]
  IC50: 7.9 µM
[2]
  IC50: 0.15 µM

## COc1ccc2c(c1)c(N1CCN(Cc3cccc4ccccc34)CC1)c([N+](=O)[O-])c(=O)n2C [Example 8, 6-methoxy-1-methyl-4-{4-[(naphthalen-1-yl)methyl]piperazin-1-yl}-3-nitro-1,2-dihydroquinolin-2-one]
[1]
  IC50: 82 µM
[2]
  IC50: 39 µM

## Cn1c(=O)c(CO)c(N2CCN(C(c3ccccc3)c3ccccc3)CC2)c2ccccc21 [Example 11, 4-[4-(diphenylmethyl)piperazin-1-yl]-3-(hydroxymethyl)-1-methyl-1,2-dihydroquinolin-2-one]
[1]
  IC50: > 240 µM
[2]
  IC50: 90 µM

## C[C@@H]1CN(c2cc(=O)n(C)c3ccc(C#N)cc23)[C@@H](C)CN1C(c1ccc(F)cc1)c1ccc(F)cc1 (stereo in doubt) [Example 7, 4-[(2S,5R)-4-[bis(4-fluorophenyl)methyl]-2,5-dimethylpiperazin-1-yl]-1-methyl-2-oxo-1,2-dihydroquinoline-6-carbonitrile]
[1]
  IC50: > 250 µM
[2]
  IC50: 1.3 µM
